Data as given in patent publication US6423718B1, “4,4-disubstituted-3,4-dihydro-2(1H)-quinazolinones useful as HIV reverse transcriptase inhibitors” (Bristol-Myers Squibb Pharma Company, priority 1997, dated 2002).
Converted amounts (≈) assume the structure as drawn.

System: HIV-1 (RF)
Experiment: HIV RNA assay: microplate based compound evaluation in HIV-1 infected MT-2 cells (IC90)
Assay type: cell-based
Conditions: Human immunodeficiency virus 1, MT2, 72 h; HIV-1 (RF) infected MT-2 cells, 3 days of culture; virus dilutions selected to standardize the inoculum; read-out: IC90 value (concentration of compound required to reduce the HIV RNA level by 90%)
Method: Plasmid pDAB 72 containing both gag and pol sequences of BH10 (bp 113-1816) cloned into PTZ 19R was prepared according to Erickson-Viitanen et al. AIDS Research and Human Retroviruses 1989, 5, 577. The plasmid was linearized with Ban HI prior to the generation of in vitro RNA transcripts using the Riboprobe Gemini system II kit (Promega) with T7 RNA polymerase. Synthesized RNA was purified by treatment with RNase free DNAse (Promega), phenol-chloroform extraction, and ethanol precipitation. RNA transcripts were dissolved in water, and stored at −70° C. The concentration of RNA was determined from the A260.
Biotinylated capture probes were purified by HPLC after synthesis on an Applied Biosystems (Foster City, Calif.) DNA synthesizer by addition of biotin to the 5′ terminal end of the oligonucleotide, using the biotin-phosphoramidite reagent of Cocuzza, Tet. Lett. 1989, 30, 6287. […]
MT-2 and MT-4 cells were maintained in RPMI 1640 supplemented with 5% fetal calf serum (FCS) for MT-2 cells or 10% FCS for MT-4 cells, 2 mM L-glutamine and 50 μg/mL gentamycin, all from Gibco. […] Infectious titers of HIV-1 (RF) stocks were 1-3×10^7 PFU (plaque forming units)/mL as measured by plaque assay on MT-2 cells (see below). […]

IC90 [µg/mL]	SMILES
0.2 (≈ 0.947 µM)	Nc1ccn([C@H]2CC[C@@H](CO)O2)c(=O)n1 [ddC, 2′,3′-dideoxycytidine]

System: not given
Experiment: not given
Conditions: not given

SMILES	melting point [°C]
COc1ccc2c(c1)C(C#CC1CC1)(C(F)(F)F)NC(=O)N2 (racemic) [Example 6, (+/−)-4-Cyclopropylethynyl-6-methoxy-4-trifluoromethyl-3,4-dihydro-2(1H)-quinazolinone]	208
CC(C)CCC1(C(F)(F)F)NC(=O)Nc2ccc(F)c(F)c21 (racemic) [Example 15, (+/−)-5,6-Difluoro-4-isopentyl-4-trifluoromethyl-3,4-dihydro-2(1H)-quinazolinone]	192 to 193
O=C1Nc2ccc(F)cc2C(C#CC2CC2)(C(F)(F)F)N1 (racemic) [Example 17, (+/−)-4-Cyclopropylethynyl-6-fluoro-4-trifluoromethyl-3,4-dihydro-2(1H)-quinazolinone]	155
CC(C)CCC1(C(F)(F)F)NC(=O)Nc2ccc(F)cc21 (racemic) [Example 22, (+/−)-6-Fluoro-4-isopentyl-4-trifluoromethyl-3,4-dihydro-2(1H)-quinazolinone]	179

The remaining lines, values ahead:

melting point [°C]	SMILES
198	CCCCC1(C(F)(F)F)NC(=O)Nc2ccc(F)cc21 (racemic) [Example 24, (+/−)-4-Butyl-6-fluoro-4-trifluoromethyl-3,4-dihydro-2(1H)-quinazolinone]
98	O=C1Nc2ccc(F)cc2C(CCc2ccccc2)(C(F)(F)F)N1 (racemic) [Example 25, (+/−)-6-Fluoro-4-phenylethyl-4-trifluoromethyl-3,4-dihydro-2(1H)-quinazolinone]
